pIC50: −log10 of the molar value. Like-named read-outs stand apart in the source and are kept apart here.
Experiments:
EGFR-WT = EGFR-WT (Homo sapiens (Human), UniProt P00533); test: Omnia assay for potency assessment against EGFR (WT)
BTK = BTK (Homo sapiens (Human), UniProt Q06187); test: Omnia assay for potency assessment against BTK; format: biochemical; settings: [BTK]=5 nM, Omnia assay; read-out: BTK Inhibition (IC50)
Procedure: The modified BTK-optimized reagent conditions for the above protocol are:
[BTK]=5 nM, [ATP]=[…], [Y5-Sox]=[…] (ATP KMapp˜[…]).

[1] = read-out: EGFR (wild type inhibition), EGFR wild type

Chain of BTK (Q06187 whole entry): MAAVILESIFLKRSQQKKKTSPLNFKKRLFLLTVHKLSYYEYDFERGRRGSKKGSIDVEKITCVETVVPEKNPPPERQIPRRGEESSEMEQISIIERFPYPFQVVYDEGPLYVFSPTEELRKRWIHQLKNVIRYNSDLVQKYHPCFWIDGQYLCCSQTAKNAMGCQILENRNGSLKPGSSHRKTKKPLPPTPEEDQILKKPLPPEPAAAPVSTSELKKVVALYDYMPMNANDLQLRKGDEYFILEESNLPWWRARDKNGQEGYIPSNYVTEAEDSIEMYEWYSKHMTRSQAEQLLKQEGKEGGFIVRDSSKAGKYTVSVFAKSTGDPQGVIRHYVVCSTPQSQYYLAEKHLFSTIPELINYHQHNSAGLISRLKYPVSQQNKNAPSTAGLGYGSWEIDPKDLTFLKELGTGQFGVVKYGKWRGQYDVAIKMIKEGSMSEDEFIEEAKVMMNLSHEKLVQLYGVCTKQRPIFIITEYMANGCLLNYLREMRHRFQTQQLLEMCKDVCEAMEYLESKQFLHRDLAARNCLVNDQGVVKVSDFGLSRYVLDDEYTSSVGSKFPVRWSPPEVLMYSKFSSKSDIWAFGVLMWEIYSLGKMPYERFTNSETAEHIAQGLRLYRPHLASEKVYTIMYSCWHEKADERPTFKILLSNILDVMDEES

Q: “4-(4-(4-(3-acrylamidophenylamino)-5-fluoropyrimidin-2-ylamino)phenoxy) pyridine [Compound I-346]” was tested. Which pIC50 (EGFR-WT; [1]) did it give?
A: The pIC50 was 6.00 to 7.00.

Q: What about the pIC50 (BTK) of the same compound?
A: The pIC50 was greater than 8.00.

Q: How did the pIC50 (EGFR-WT) turn out when `COc1cccc(Nc2ncc(C(F)(F)F)c(N[C@@H]3CCC[C@H](C(=O)C=C(C)C)C3)n2)c1` (stereo in doubt) [Compound I-213, 1-(3-(2-(3-Methoxy-phenylamino)-5-trifluoromethyl-pyrimidin-4-ylamino)-cyclohexyl)-3-methyl-but-2-en-1-one] was run?
A: The pIC50 was 6.00 to 7.00.

Q: What about the pIC50 (BTK) of the same compound?
A: Its pIC50 is less than 5.00.

Q: With `C=CC(=O)Nc1cccc(Nc2ncc(C)c(Nc3cccc(Br)c3)n2)c1` [Compound I-9, N-(3-(4-(3-bromophenylamino)-5-methylpyrimidin-2-ylamino)phenyl) acrylamide] as the compound, how does the pIC50 (BTK) read?
A: The pIC50 was greater than 8.00.

Q: What does the source list for `C=CC(=O)Nc1cccc(N(C)c2nc(Nc3ccccc3)ncc2C)c1` [Compound I-34, N-(3-(methyl(5-methyl-2-(phenylamino)pyrimidin-4-yl)amino)phenyl)acrylamide]?
A: pIC50 (EGFR-WT): 6.00 to 7.00; pIC50 (BTK): 7.00 to 8.00

Q: `C=CC(=O)Nc1cccc(Nc2nc(Nc3ccc(Cl)c(OCCCS(C)(=O)=O)c3)ncc2F)c1` [Compound I-55, N-(3-(2-(4-chloro-3-(3-(methylsulfonyl)propoxy)phenylamino)-5-fluoropyrimidin-4-ylamino)phenyl)acrylamide] was tested. Which pIC50 (BTK) did it give?
A: Its pIC50 is greater than 8.00.

Q: Which results are given for `C/C=C/C(=O)OCc1ccc(Nc2nc(Nc3ccccc3)ncc2C)cc1` [Compound I-60, (E)-4-(5-methyl-2-(phenylamino)pyrimidin-4-ylamino) benzyl but-2-enoate]?
A: pIC50 (EGFR-WT; [1]): 5.00 to 6.00; pIC50 (BTK): 6.00 to 7.00

Q: Which results are given for `C=CC(=O)Nc1cccc(Nc2nc(Nc3ccc(Cl)c(OC)c3)ncc2F)c1` [Compound I-74, N-(3-(5-fluoro-2-(4-chloro-3-methoxyphenylamino)pyrimidin-4-ylamino)phenyl)acrylamide]?
A: pIC50 (EGFR-WT): 6.00 to 7.00; pIC50 (BTK): > 8.00

Q: `C=CC(=O)Nc1cccc(Oc2nc(Nc3cccc(OCC4CCCN(C)C4)c3)ncc2F)c1` (centres unmarked) [Compound I-81, N-(3-(5-fluoro-2-(3-((1-methylpiperidin-3-yl)methoxy)phenylamino)pyrimidin-4-yloxy)phenyl)acrylamide] was tested. Which pIC50 (EGFR-WT; [1]) did it give?
A: The pIC50 was greater than 8.00.

Q: And the pIC50 (BTK)?
A: The pIC50 was greater than 8.00.

Q: How did the pIC50 (EGFR-WT; [1]) turn out when `C=CC(=O)Nc1cccc(Nc2nc(Nc3cccc(OCC4CCN(C)CC4)c3)ncc2F)c1` [Compound I-82, N-(3-(5-fluoro-2-(3-((1-methylpiperidin-4-yl)methoxy)phenylamino)pyrimidin-4-ylamino)phenyl)-acrylamide] was run?
A: Its pIC50 is greater than 8.00.

Q: And the pIC50 (BTK)?
A: Its pIC50 is greater than 8.00.

Q: With `C=CC(=O)Nc1cccc(Nc2nc(Nc3cccc(N4CCN(CCO)CC4)c3)ncc2F)c1` [Compound I-83, N-(3-(2-(3-(4-(2-hydroxyethyl)piperazin-1-yl)phenylamino)-5-fluoropyrimidin-4-ylamino)phenyl)acrylamide] as the compound, how does the pIC50 (EGFR-WT) read?
A: The pIC50 was 7.00 to 8.00.

Q: Which results are given for `C=CC(=O)Nc1cccc(Oc2nc(Nc3cccc(N4CCN(CCO)CC4)c3)ncc2F)c1` [Compound I-84, N-(3-(5-fluoro-2-(3-(4-(2-hydroxyethyl)piperazin-1-yl)phenylamino)pyrimidin-4-yloxy)phenyl)acrylamide]?
A: pIC50 (EGFR-WT; [1]): > 8.00; pIC50 (BTK): > 8.00

Q: With `C=CC(=O)Nc1cccc(Nc2nc(Nc3ccc(OCCN4CCCC4=O)cc3)ncc2F)c1` [Compound I-92, N-(3-(5-fluoro-2-(4-(2-(2-oxopyrrolidin-1-yl)ethoxy)phenylamino)pyrimidin-4-ylamino)phenyl)acrylamide] as the compound, how does the pIC50 (EGFR-WT) read?
A: Its pIC50 is 7.00 to 8.00.

Q: And the pIC50 (BTK)?
A: Its pIC50 is greater than 8.00.

Q: How did the pIC50 (EGFR-WT) turn out when `C=CC(=O)Nc1cccc(Nc2nc(Nc3ccc(OC(C)(C)CO)cc3)ncc2F)c1` [Compound I-93, N-(3-(5-fluoro-2-(4-(1-hydroxy-2-methylpropan-2-yloxy)phenylamino)pyrimidin-4-ylamino)phenyl)acrylamide] was run?
A: The pIC50 was 7.00 to 8.00.

Q: And the pIC50 (BTK)?
A: The pIC50 was greater than 8.00.

Q: How did the pIC50 (EGFR-WT) turn out when `C=C(Cn1cccn1)C(=O)Nc1cccc(Nc2ncc(F)c(Nc3cccc(C)c3)n2)c1` [Compound I-98, 2-((1H-pyrazol-1-yl)methyl)-N-(3-(5-fluoro-4-(m-tolylamino)pyrimidin-2-ylamino)phenyl)acrylamide] was run?
A: The pIC50 was 6.00 to 7.00.

Q: With `Cc1cccc(Nc2nc(Nc3cccc(NC(=O)/C=C/CN4CC[C@H](O)C4)c3)ncc2F)c1` [Compound I-99, (S,E)-N-(3-(5-fluoro-4-(m-tolylamino)pyrimidin-2-ylamino)phenyl)-4-(3-hydroxypyrrolidin-1-yl)but-2-enamide] as the compound, how does the pIC50 (EGFR-WT; [1]) read?
A: The pIC50 was greater than 8.00.

Q: What about the pIC50 (BTK) of the same compound?
A: Its pIC50 is greater than 8.00.

Q: How did the pIC50 (EGFR-WT; [1]) turn out when `Cc1cccc(Nc2nc(Nc3cccc(NC(=O)/C=C/Cn4cccn4)c3)ncc2F)c1` [Compound I-100, (E)-N-(3-(5-fluoro-4-(m-tolylamino)pyrimidin-2-ylamino)phenyl)-4-(1H-pyrazol-1-yl)but-2-enamide] was run?
A: Its pIC50 is 5.00 to 6.00.

Q: With `Cc1cccc(Nc2nc(Nc3cccc(NC(=O)/C=C/CN4C[C@@H]5C[C@H]4CN5)c3)ncc2F)c1` [Compound I-101, (E)-4-((1S,4S)-2,5-diazabicyclo[2.2.1]heptan-2-yl)-N-(3-(5-fluoro-4-(m-tolylamino)pyrimidin-2-ylamino)phenyl)but-2-enamide] as the compound, how does the pIC50 (EGFR-WT) read?
A: Its pIC50 is 7.00 to 8.00.

Q: What about the pIC50 (BTK) of the same compound?
A: Its pIC50 is 7.00 to 8.00.

Q: With `Cc1cccc(Nc2nc(Nc3cccc(NC(=O)/C=C/CN4CCOCC4)c3)ncc2F)c1` [Compound I-102, (E)-N-(3-(5-fluoro-4-(m-tolylamino)pyrimidin-2-ylamino)phenyl)-4-morpholinobut-2-enamide] as the compound, how does the pIC50 (EGFR-WT) read?
A: The pIC50 was 6.00 to 7.00.

Q: How did the pIC50 (BTK) turn out when `C=CC(=O)N(C)Cc1cccc(Nc2nc(Nc3cccc(OC)c3)ncc2F)c1` [Compound I-115, N-(3-(5-fluoro-2-(3-methyoxyphenylamino)pyrimidin-4-ylamino)benzyl)-N-methylacrylamide] was run?
A: Its pIC50 is 7.00 to 8.00.

Q: `Cc1cccc(Nc2nc(Nc3cccc(NC(=O)/C=C/CN4CCC4)c3)ncc2F)c1` [Compound I-123, (E)-4-(azetidin-1-yl)-N-(3-(5-fluoro-4-(m-tolylamino)pyrimidin-2-ylamino)phenyl)but-2-enamide] was tested. Which pIC50 (EGFR-WT) did it give?
A: Its pIC50 is 7.00 to 8.00.

Q: How did the pIC50 (EGFR-WT) turn out when `C=CC(=O)Nc1cccc(N(C)c2nc(Nc3ccc4c(c3)N(C)CCO4)ncc2F)c1` [Compound I-127] was run?
A: The pIC50 was 6.00 to 7.00.

Q: `C=CC(=O)N1CCOc2ccc(Nc3nc(Nc4ccc(OCCO)nc4)ncc3C(C)=O)cc21` [Compound I-128, 1-(6-{5-Acetyl-2-[6-(2-hydroxy-ethoxy)-pyridin-3-ylamino]-pyrimidin-4-ylamino}-2,3-dihydro-benzo[1,4]oxazin-4-yl)-propenone] was tested. Which pIC50 (EGFR-WT) did it give?
A: Its pIC50 is 7.00 to 8.00.

Q: How did the pIC50 (EGFR-WT) turn out when `C=CC(=O)Nc1cccc(Nc2nc(Nc3ccc(OCCOC)cc3)ncc2C2CC2)c1` [Compound I-139, N-(3-(5-cyclopropyl-2-(4-(2-methoxyethoxy)phenylamino)pyrimidin-4-ylamino)phenyl)acrylamide] was run?
A: Its pIC50 is 7.00 to 8.00.

Q: With `C=CC(=O)N1CCOc2ccc(Nc3nc(Nc4ccc(N5CCCC5=O)cc4)ncc3C(C)=O)cc21` [Compound I-152, 1-{4-[5-Acetyl-4-(4-acryloyl-3,4-dihydro-2H-benzo[1,4]oxazin-6-ylamino)-pyrimidin-2-ylamino]-phenyl}-pyrrolidin-2-one] as the compound, how does the pIC50 (EGFR-WT) read?
A: Its pIC50 is 7.00 to 8.00.

Q: With `C=CC(=O)Nc1cccc(Nc2nc(Nc3ccc(OC)nc3)ncc2C(=O)NC(C)(C)C)c1` [Compound I-216, 4-(3-acrylamidophenylamino)-N-tert-butyl-2-(6-methoxypyridin-3-ylamino)pyrimidine-5-carboxamide] as the compound, how does the pIC50 (EGFR-WT; [1]) read?
A: Its pIC50 is 5.00 to 6.00.

Q: `C=CC(=O)Nc1cccc(Nc2nc(Nc3ccccc3)ncc2C(=O)Nc2ccccc2)c1` [Compound I-222, 4-(3-acrylamidophenylamino)-N-phenyl-2-(phenylamino)pyrimidine-5-carboxamide] was tested. Which pIC50 (EGFR-WT) did it give?
A: The pIC50 was 6.00 to 7.00.

Q: How did the pIC50 (EGFR-WT; [1]) turn out when `COc1cccc(Nc2ncc(C(F)(F)F)c(Nc3cccc(C(=O)C=C(C)C)c3)n2)c1` [Compound I-225, 1-(3-(5-trifluoromethyl-2-(3-methoxyphenylamino)pyrimidin-4-ylamino)phenyl)-3-methyl-but-2-en-1-one] was run?
A: Its pIC50 is 5.00 to 6.00.

Q: How did the pIC50 (EGFR-WT; [1]) turn out when `C=CC(=O)NCc1cccc(Nc2nc(Nc3cccc(OC)c3)ncc2C(F)(F)F)c1` [Compound I-226, N-(3-(5-trifluoromethyl-2-(3-methoxyphenylamino)pyrimidin-4-ylamino)phenyl)methylacrylamide] was run?
A: The pIC50 was 5.00 to 6.00.

Q: `C=CC(=O)N1CCC(Nc2nc(Nc3ccccc3)ncc2F)CC1` [Compound I-229, 1-(4-(5-fluoro-2-(phenylamino)pyrimidin-4-ylamino)piperidin-1-yl)prop-2-en-1-one] was tested. Which pIC50 (BTK) did it give?
A: The pIC50 was 7.00 to 8.00.

Q: With `C=CC(=O)NCc1ccc(Nc2nc(Nc3cccc(OC)c3)ncc2C(F)(F)F)cc1` [Compound I-235, N-(4-(5-trifluoromethyl-2-(3-methoxyphenylamino)pyrimidin-4-ylamino)phenyl)methylacrylamide] as the compound, how does the pIC50 (EGFR-WT; [1]) read?
A: Its pIC50 is less than 5.00.

Q: How did the pIC50 (BTK) turn out when `C=C(C#N)C(O)c1cccc(Nc2nc(Nc3ccc(OCC(C)(C)O)nc3)ncc2F)c1` (centres unmarked) [Compound I-312, 2-((3-(5-fluoro-2-(6-(2-hydroxy-2-methylpropoxy)pyridin-3-ylamino)pyrimidin-4-ylamino)phenyl)(hydroxy)methyl)acrylonitrile] was run?
A: Its pIC50 is greater than 8.00.

Q: How did the pIC50 (EGFR-WT; [1]) turn out when `COCCOc1ccc(Nc2ncc(F)c(Nc3cccc(C(=O)C=C(C)C)c3)n2)cc1F` [Compound I-323, 1-(3-(5-fluoro-2-(3-fluoro-4-(2-methoxyethoxy)phenylamino)pyrimidin-4-ylamino)phenyl)-3-methylbut-2-en-1-one] was run?
A: Its pIC50 is less than 5.00.

Q: `COCCOc1ccc(Nc2ncc(F)c(Nc3ccc(C(=O)C=C(C)C)cc3)n2)cc1F` [Compound I-325, 1-(4-(5-fluoro-2-(3-fluoro-4-(2-methoxyethoxy)phenylamino)pyrimidin-4-ylamino)phenyl)-3-methylbut-2-en-1-one] was tested. Which pIC50 (EGFR-WT; [1]) did it give?
A: The pIC50 was 5.00 to 6.00.

Q: How did the pIC50 (EGFR-WT; [1]) turn out when `COCCOc1ccc(Nc2ncc(F)c(Nc3cccc(CC(=O)C=C(C)C)c3)n2)cc1F` [Compound I-330, 1-(3-(5-fluoro-2-(3-fluoro-4-(2-methoxyethoxy)phenylamino)pyrimidin-4-ylamino)phenyl)-4-methylpent-3-en-2-one] was run?
A: Its pIC50 is less than 5.00.

Q: `COCCOc1ccc(Nc2ncc(F)c(Nc3ccc(CC(=O)C=C(C)C)cc3)n2)cc1F` [Compound I-331, 1-(4-(5-fluoro-2-(3-fluoro-4-(2-methoxyethoxy)phenylamino)pyrimidin-4-ylamino)phenyl)-4-methylpent-3-en-2-one] was tested. Which pIC50 (EGFR-WT; [1]) did it give?
A: The pIC50 was 5.00 to 6.00.
